Source: article PMC10979849 (bioRxiv, 2024)

Target: T1, wild-type (WT) Octβ2R (Drosophila melanogaster, UniProt Q4LBB9)
T1 sequence (Q4LBB9 1-536): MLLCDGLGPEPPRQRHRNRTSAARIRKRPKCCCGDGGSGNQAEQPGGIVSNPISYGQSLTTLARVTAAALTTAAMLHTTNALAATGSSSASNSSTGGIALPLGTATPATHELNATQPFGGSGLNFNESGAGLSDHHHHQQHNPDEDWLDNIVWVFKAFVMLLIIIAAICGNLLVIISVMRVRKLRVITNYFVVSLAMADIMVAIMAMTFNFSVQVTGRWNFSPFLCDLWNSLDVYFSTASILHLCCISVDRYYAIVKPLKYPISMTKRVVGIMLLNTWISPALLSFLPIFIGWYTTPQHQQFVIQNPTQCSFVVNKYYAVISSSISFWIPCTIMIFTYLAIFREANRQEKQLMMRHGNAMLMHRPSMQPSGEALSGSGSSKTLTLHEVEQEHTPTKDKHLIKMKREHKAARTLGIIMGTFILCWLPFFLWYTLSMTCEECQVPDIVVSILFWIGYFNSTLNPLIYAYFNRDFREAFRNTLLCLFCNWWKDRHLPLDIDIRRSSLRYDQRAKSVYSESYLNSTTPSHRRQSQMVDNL
Experiment: Tango β-arrestin assay
Type: cell-based
Settings: agonist; OA 1 nM to 100 μM, ~16 h (Tango)

Structure (SMILES): NC[C@H](O)c1ccc(O)cc1 [Octopamine]
- Tango β-arrestin assay (HTLA cells); RFlamp cAMP assay (HEK293T): negligible β-arrestin-dependent signaling compared to cells expressing WT Octβ2R, even at high concentrations of OA
